Test results reported in ChEMBL document CHEMBL3085684, “Unraveling phosphodiesterase surfaces. Identification of phosphodiesterase 7 allosteric modulation cavities” (Eur J Med Chem, 2013).
The source made the active and inactive calls. No cut-off for these calls is given here.

Each molecule was assayed against T1, High affinity 3',5'-cyclic-AMP phosphodiesterase 7A (Homo sapiens, UniProt Q13946) (assay: Non-competitive mixed type inhibition of human recombinant PDE7A1 using […] after 20 mins by Lineweaver-Burk plot analysis).
T1 sequence (Q13946 whole entry): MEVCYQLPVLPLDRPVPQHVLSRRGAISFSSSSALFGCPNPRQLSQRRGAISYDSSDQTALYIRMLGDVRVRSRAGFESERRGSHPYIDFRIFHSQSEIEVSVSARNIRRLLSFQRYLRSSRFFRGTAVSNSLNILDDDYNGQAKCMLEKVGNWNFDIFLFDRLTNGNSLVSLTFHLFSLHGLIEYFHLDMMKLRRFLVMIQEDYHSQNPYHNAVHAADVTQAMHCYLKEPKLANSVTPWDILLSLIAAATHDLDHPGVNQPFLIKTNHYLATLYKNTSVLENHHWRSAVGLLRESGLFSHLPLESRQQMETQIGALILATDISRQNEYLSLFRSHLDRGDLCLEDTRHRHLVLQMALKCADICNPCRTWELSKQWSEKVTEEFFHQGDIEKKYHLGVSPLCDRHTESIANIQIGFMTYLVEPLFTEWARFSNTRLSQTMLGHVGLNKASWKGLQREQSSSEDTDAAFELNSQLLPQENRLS

SMILES	inhibition
S=c1[nH]c2ccccc2c(=S)n1-c1ccccc1	Active
O=c1c2ccccc2[nH]c(=S)n1-c1ccccc1	Active

The molecules below were run against T1, High affinity 3',5'-cyclic-AMP phosphodiesterase 7A (assay: Competitive inhibition of human recombinant PDE7A1 using […] after 20 mins by Lineweaver-Burk plot analysis).

SMILES	competitive inhibition (Lineweaver-Burk)
CCSc1nc2ccccc2c(=O)n1-c1ccccc1	Active
CC(C)Cn1c(=O)n(C)c(=O)c2nc[nH]c21	Active
CSc1nc2ccccc2c(=O)n1-c1c(F)cccc1F	Active
O=c1c2ccccc2nc(SCc2ccccc2)n1-c1ccccc1	Active

What follows are molecules tested against T1, High affinity 3',5'-cyclic-AMP phosphodiesterase 7A (assay: Inhibition of human recombinant PDE7A1 using […] after 20 mins by scintillation proximity assay).

SMILES	IC50 [µM]
Cc1cccc2c(=O)n(-c3c(F)cccc3F)c(=S)[nH]c12	9.3
CSc1nc2ccccc2c(=S)n1-c1ccccc1Br	5.33
O=c1c2ccccc2[nH]c(=S)n1-c1ccc(F)c(F)c1F	7.02
Fc1cccc(F)c1-n1c(=S)[nH]c2ccccc2c1=S	0.48
CSc1nc2c(Cl)cccc2c(=O)n1-c1c(F)cccc1F	15.2
CSc1nc2c(C)cccc2c(=O)n1-c1ccccc1Br	1.69
CSc1nc2ccc(Br)cc2c(=O)n1-c1ccc(F)c(F)c1F	5.07
CSc1nc2ccccc2c(=S)n1-c1c(F)cccc1F	3.23
